In ChEMBL document CHEMBL1201862, “PubChem BioAssay data set” (2004):
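Cells were grown in 96-well plates and exposed to each compound for 48 hours at five concentrations; endpoints were interpolated linearly between bracketing concentrations, or set to the highest concentration if not reached. The concentration for 50% growth inhibition is given as GI50.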 The source made the active and inactive calls. Rule as the data show it: active = GI50 up to about 1.1 µM and inactive = higher.

Tests used:
Assay in all cases: inhibition of tumour cell growth, NCI panel, 48 h
ACHN = system: ACHN
BT-549 = system: BT-549
CAKI-1 = system: CAKI-1
EKVX = system: EKVX
HCT-15 = system: HCT-15
HL-60 = system: HL-60
IGROV-1 = system: IGROV-1
K562 = system: K562
MDA-N = system: MDA-N
MOLT-4 = system: MOLT-4
OVCAR-3 = system: OVCAR-3
OVCAR-8 = system: OVCAR-8
RPMI-8226 = system: RPMI-8226
RXF 393 = system: RXF 393
SK-MEL-28 = system: SK-MEL-28
SN12C = system: SN12C
SNB-75 = system: SNB-75
T47D = system: T47D
UACC-257 = system: UACC-257

Compound | GI50 (ACHN) | GI50 (BT-549) | GI50 (CAKI-1) | GI50 (EKVX) | GI50 (HCT-15) [µM] | GI50 (HL-60) | GI50 (IGROV-1) | GI50 (K562) | GI50 (MDA-N) | GI50 (MOLT-4) | GI50 (OVCAR-3) | GI50 (OVCAR-8) | GI50 (RPMI-8226) | GI50 (RXF 393) | GI50 (SK-MEL-28) | GI50 (SN12C) | GI50 (SNB-75) | GI50 (T47D) | GI50 (UACC-257)
CCOC(=O)n1ccc2c(C(=O)OC)c(C(=O)OC)cc(/C(=C/C(=O)OC)C(=O)OC)c21 | > 100 µM (inactive) | 60.7 µM (inactive) | > 100 µM (inactive) | > 100 µM (inactive) | > 10 | > 100 µM (inactive) | > 100 µM (inactive) | 26.5 µM (inactive) | 83.6 µM (inactive) | 32.1 µM (inactive) | > 100 µM (inactive) | > 100 µM (inactive) | 26.5 µM (inactive) | 66.8 µM (inactive) | > 100 µM (inactive) | > 100 µM (inactive) | > 100 µM (inactive) | 74.5 µM (inactive) | > 100 µM (inactive)
C(=N\c1ccc(-c2nc3ccccc3[nH]2)cc1)/c1ccc[nH]1 | > 100 µM (inactive) | > 100 µM (inactive) | > 100 µM (inactive) | > 100 µM (inactive) | 76.6 | 1.91 µM (inactive) | > 100 µM (inactive) | 41.3 µM (inactive) | 34.2 µM (inactive) | 28.8 µM (inactive) | 69 µM (inactive) | 83.9 µM (inactive) | 37.8 µM (inactive) | 76.2 µM (inactive) | > 100 µM (inactive) | 63.2 µM (inactive) | > 100 µM (inactive) | 40.3 µM (inactive) | > 100 µM (inactive)
CC(N)(Cc1c[nH]c2ccccc12)C(=O)O (centres undefined) | > 100 µM (inactive) | > 100 µM (inactive) | > 100 µM (inactive) | > 100 µM (inactive) | > 100 | > 100 µM (inactive) | > 100 µM (inactive) | > 100 µM (inactive) | > 100 µM (inactive) | > 100 µM (inactive) | > 100 µM (inactive) | > 100 µM (inactive) | > 100 µM (inactive) | > 100 µM (inactive) | > 100 µM (inactive) | > 100 µM (inactive) | > 100 µM (inactive) | > 100 µM (inactive) | > 100 µM (inactive)
O=C1Oc2cc(O)cc(/C=C/c3ccc(O)cc3)c2[C@@]12c1c(O)cc(O)cc1OC2c1cccc(O)c1 (some centres undefined) | 52.5 µM (inactive) | 49.8 µM (inactive) | 83.8 µM (inactive) | 49.3 µM (inactive) | 83.4 | 28.9 µM (inactive) | 0.61 µM (active) | 39.8 µM (inactive) | 26.1 µM (inactive) | 42.8 µM (inactive) | 61.2 µM (inactive) | 41.2 µM (inactive) | 13.4 µM (inactive) | 34.6 µM (inactive) | 37.3 µM (inactive) | 25.9 µM (inactive) | 52.2 µM (inactive) | 44.8 µM (inactive) | 15.2 µM (inactive)
O=C1/C(=C/c2cccc(Oc3ccccc3)c2)N=C(c2ccccc2)N1c1nc2ccc(Sc3ccccc3)cc2[nH]1 | 54.3 µM (inactive) | 14.9 µM (inactive) | 36.2 µM (inactive) | 44.1 µM (inactive) | 28 | 20.4 µM (inactive) | 46.9 µM (inactive) | 23.7 µM (inactive) | 16 µM (inactive) | 33.7 µM (inactive) | 15.8 µM (inactive) | 29.9 µM (inactive) | 20.5 µM (inactive) | 24.8 µM (inactive) | 41.3 µM (inactive) | 20.7 µM (inactive) | 18.2 µM (inactive) | 23.6 µM (inactive) | 29.4 µM (inactive)
NC(CCC(=O)O)C(=O)NC(Cc1ccc(N(CCCl)CCCl)cc1)C(=O)O (centres undefined) | > 100 µM (inactive) | > 100 µM (inactive) | 81.8 µM (inactive) | > 100 µM (inactive) | > 100 | > 100 µM (inactive) | > 100 µM (inactive) | > 100 µM (inactive) | > 100 µM (inactive) | > 100 µM (inactive) | > 100 µM (inactive) | > 100 µM (inactive) | > 100 µM (inactive) | > 100 µM (inactive) | > 100 µM (inactive) | > 100 µM (inactive) | > 100 µM (inactive) | > 100 µM (inactive) | > 100 µM (inactive)
CC(C)(C)CC(C)(C)c1cc(O)c(O)c(CN2CCCCC2)c1 | 12.9 µM (inactive) | 15.1 µM (inactive) | 14.2 µM (inactive) | 12.7 µM (inactive) | 4.01 | 13.3 µM (inactive) | 17.5 µM (inactive) | 4.25 µM (inactive) | 15.1 µM (inactive) | 4.35 µM (inactive) | 14.7 µM (inactive) | 15.6 µM (inactive) | 12.8 µM (inactive) | 12.8 µM (inactive) | 17.7 µM (inactive) | 15.7 µM (inactive) | 17.7 µM (inactive) | 11.6 µM (inactive) | 13.3 µM (inactive)
CSC(=N/C=C/c1ccccc1)SC | > 100 µM (inactive) | > 100 µM (inactive) | > 100 µM (inactive) | > 100 µM (inactive) | > 100 | 49.9 µM (inactive) | 73.6 µM (inactive) | 72.8 µM (inactive) | 55.6 µM (inactive) | > 100 µM (inactive) | 51.4 µM (inactive) | > 100 µM (inactive) | > 100 µM (inactive) | 25.2 µM (inactive) | > 100 µM (inactive) | > 100 µM (inactive) | > 100 µM (inactive) | > 100 µM (inactive) | > 100 µM (inactive)
O=C1NC(=O)C(c2c[nH]c3cc(Br)ccc23)=C1c1cn(C(c2ccccc2)(c2ccccc2)c2ccccc2)cn1 | 20.2 µM (inactive) | 16 µM (inactive) | 22.6 µM (inactive) | 7.82 µM (inactive) | 12.8 | 13.7 µM (inactive) | 12 µM (inactive) | 6.3 µM (inactive) | 10.1 µM (inactive) | 4.41 µM (inactive) | 29.7 µM (inactive) | 14.6 µM (inactive) | 10.1 µM (inactive) | 15 µM (inactive) | 27.2 µM (inactive) | 15.5 µM (inactive) | 11.5 µM (inactive) | 15.2 µM (inactive) | 18.5 µM (inactive)
O=C1C(c2ccccc2)=C(c2ccccc2)C1(Cl)Cl | 2.64 µM (inactive) | 2.47 µM (inactive) | 2.62 µM (inactive) | 5.04 µM (inactive) | 2.07 | 0.736 µM (active) | 3.95 µM (inactive) | 1.91 µM (inactive) | 2.02 µM (inactive) | 2.55 µM (inactive) | 2.62 µM (inactive) | 2.64 µM (inactive) | 2.11 µM (inactive) | 1.88 µM (inactive) | 3.78 µM (inactive) | 2.87 µM (inactive) | 4.95 µM (inactive) | 3.18 µM (inactive) | 2.71 µM (inactive)
Oc1nc2nnc(COc3ccc(Cl)cc3Cl)n2nc1Cc1ccccc1 | 41.8 µM (inactive) | > 100 µM (inactive) | > 100 µM (inactive) | > 100 µM (inactive) | > 100 | 49.2 µM (inactive) | 24.2 µM (inactive) | > 100 µM (inactive) | > 100 µM (inactive) | > 100 µM (inactive) | 27.5 µM (inactive) | 26.1 µM (inactive) | > 100 µM (inactive) | 21.5 µM (inactive) | > 100 µM (inactive) | 57.1 µM (inactive) | 16 µM (inactive) | 37.8 µM (inactive) | > 100 µM (inactive)
